One test has as its system glioblastoma. The test is described as follows: REGOMA randomized, controlled, phase II clinical trial, survival by pACC Ser79 marker status. In kind it is in vivo, patients. The protocol: Once all samples of the REGOMA trial which are available for the translational study (Table 1) have been stained, the biostatistics and clinical trial team of IOV (Mr. De Salvo—doctor) performed a statistical analysis to evaluate the possible prognostic or predictive meaning of the response of pACC^Ser79.
To evaluate the prognostic role of pACC^Ser79, an analysis was carried out according to the Cox model, considering pACC^Ser79 as an independent variable and dividing the patient samples into positive and negative (as reported above), and survival, being both free from disease progression and as a whole, as a dependent variable.
To evaluate the predictive role of pACC^Ser79, the variable of the treatment received by the patient was added to the Cox model (in particular, according to a randomized assignment, the patient received Regorafenib or Lomustine) in addition to the interaction factor of received treatment*status of the marker pACC^Ser79 (positive/negative).

Test [1] concerns glioblastoma at diagnosis. Conditions: in association with standard treatment; cited from earlier work.

As for `CNC(=O)c1cc(Oc2ccc(NC(=O)Nc3ccc(Cl)c(C(F)(F)F)c3)c(F)c2)ccn1` [Regorafenib], the “benefit from treatment in patients with neoplastic tissue positive to pACC Ser79” value in the test on glioblastoma (Cox model with treatment*marker interaction, comparator Lomustine) is recorded as “most benefited”. In addition, the “survival after second-line treatment in patients whose tumor samples express pACC Ser79” value with glioblastoma (pACC Ser79 positive tumor samples, second-line treatment, REGOMA) was “longer survival”.

For the molecule bevacizumab, in test [1], the PFS entry is recorded as “improved”, the quality of life result is recorded as “improved” and the “survival (OS)” value is listed as “no significant survival advantages”.

The values above are taken from patent US12298306B2, “Marker for identifying patients with gliobastoma who respond positively to the drug regorafenib” (ISTITUTO ONCOLOGICO VENETO IOV-IRCCS, priority 2018, dated 2025).
